From patent US6436890B1, “Antimicrobial detergent composition” (Inui Corporation, priority 1999, dated 2002)
Like-named read-outs stand apart in the source and are kept apart here.

Experiments:
Assay type in all cases: cell-based
[1] = system: Staphylococcus aureus JCI (MRSA); assay: Antimicrobial power against MRSA, MIC by Nutrient Broth liquid medium dilution method; settings: for MIC: Staphylococcus aureus JCI (MRSA); for Antimicrobial activity against MRSA (in words): at a low concentration
Protocol: Antimicrobial power against MRSA (Methicillin-resistant Staphylococcus aureus) of N,N′-hexamethylenebis (4-carbamoyl-1-decylpyridinium bromide) (“Dimer 38” manufactured by INUI CORPORATION) and 4,4′-(tetramethylenecarbonyldiamino)bis(1-decyl-pyridinium bromide) (“Dimer 136” manufactured by INUI CORPORATION). L-broth (5 ml) was inoculated with Staphylococcus aureus JC1 and, after incubation at 37° C. for 18 hours, the MIC (minimum inhibitory concentration) of Dimer 38 and Dimer 136 was measured according to the Nutrient Broth liquid medium dilution method.

[2] = system: Pseudomonas aeruginosa ATCC 10145
Protocol: (§1) L-broth (5 ml) was inoculated with each bacteria and, after incubation at 37° C. for 18 hours, the MIC (minimum inhibitory concentration) was measured according to the Nutrient Broth liquid medium dilution method.

[3] = system: Staphylococcus aureus IFO 12732
Protocol: as §1

[4] = system: Escherichia coli K12W3110
Protocol: as §1

[5] = system: Bacillus subtilis ATCC 6633
Protocol: as §1

With “4,4′-(tetramethylenedicarbonyldiamino)bis(1-decylpyridinium bromide) [Dimer 136]” the MIC [1] was 0.6 ppm and the “Antimicrobial activity against MRSA (in words)” value [1] was “demonstrate an antimicrobial activity against MRSA”.

For CC(=O)[O-].CC(=O)[O-].CCCCCCCCCC[n+]1ccc(C(=O)NCCCCCCNC(=O)c2cc[n+](CCCCCCCCCC)cc2)cc1 [Dimer 38A, N,N′-hexamethylenebis(4-carbamoyl-1-decylpyridinium acetate)], the MIC ([2]; procedure 1 of 7, P. aeruginosa ATCC 10145) was 3.1 ppm, the MIC ([2]; procedure 2 of 7, P. aeruginosa ATCC 10145) was 3.1 ppm and the MIC ([2]; procedure 3 of 7, P. aeruginosa ATCC 10145) was 6.3 ppm. The MIC ([2]; procedure 4 of 7, P. aeruginosa ATCC 10145) was 6.3 ppm, the MIC ([2]; procedure 5 of 7, P. aeruginosa ATCC 10145) was 6.3 ppm and the MIC ([2]; procedure 6 of 7, P. aeruginosa ATCC 10145) was 6.3 ppm. It also gave an MIC ([2]; procedure 7 of 7, P. aeruginosa ATCC 10145) of 3.1 ppm, an MIC ([3]; procedure 1 of 7, S. aureus IFO 12732) of 0.1 ppm and an MIC ([3]; procedure 2 of 7, S. aureus IFO 12732) of 0.01 ppm. The MIC ([3]; procedure 3 of 7, S. aureus IFO 12732) was 0.05 ppm, the MIC ([3]; procedure 4 of 7, S. aureus IFO 12732) was 0.01 ppm and the MIC ([3]; procedure 5 of 7, S. aureus IFO 12732) was 0.1 ppm. It also gave an MIC ([3]; procedure 6 of 7, S. aureus IFO 12732) of 0.1 ppm, an MIC ([3]; procedure 7 of 7, S. aureus IFO 12732) of 0.05 ppm and an MIC ([4]; procedure 1 of 7, E. coli K12W3110) of 1.6 ppm. For the same compound, the MIC ([4]; procedure 2 of 7, E. coli K12W3110) was 0.8 ppm, the MIC ([4]; procedure 3 of 7, E. coli K12W3110) was 0.8 ppm and the MIC ([4]; procedure 4 of 7, E. coli K12W3110) was 0.8 ppm. It also gave an MIC ([4]; procedure 5 of 7, E. coli K12W3110) of 1.6 ppm, an MIC ([4]; procedure 6 of 7, E. coli K12W3110) of 1.6 ppm and an MIC ([4]; procedure 7 of 7, E. coli K12W3110) of 1.6 ppm. The MIC ([5]; procedure 1 of 7, B. subtilis ATCC 6633) was 0.8 ppm, the MIC ([5]; procedure 2 of 7, B. subtilis ATCC 6633) was 0.2 ppm and the MIC ([5]; procedure 3 of 7, B. subtilis ATCC 6633) was 0.4 ppm. For the same compound, the MIC ([5]; procedure 4 of 7, B. subtilis ATCC 6633) was 0.2 ppm, the MIC ([5]; procedure 5 of 7, B. subtilis ATCC 6633) was 0.4 ppm and the MIC ([5]; procedure 6 of 7, B. subtilis ATCC 6633) was 0.4 ppm. It also gave an MIC ([5]; procedure 7 of 7, B. subtilis ATCC 6633) of 0.4 ppm.

With CCCCCCCCCC[n+]1ccc(C(=O)NCCCCCCNC(=O)c2cc[n+](CCCCCCCCCC)cc2)cc1.[Br-].[Br-] [Dimer 38, N,N′-Hexamethylenebis(4-carbamoyl-1-decylpyridinium bromide)] the MIC [1] was 0.2 ppm and the “Antimicrobial activity against MRSA (in words)” value [1] was “demonstrate an antimicrobial activity against MRSA”.
